# Where two headings read alike, the source gives them in different places.
# What was measured:
# Assay type in all cases: in vivo
# Zymoseptoria tritici = assay: Leaf blotch of wheat (SEPTTR), disease control on wheat seedlings; details: low volume application at 121.5 g/H
# Outline: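 Yuma wheat seedlings with the first leaf fully emerged were sprayed to run-off with compound in acetone plus nine volumes of water containing 110 ppm Triton X-100; track-spray tests used EC formulations with 0.1% Trycol 5941. Z. tritici inoculation came before or after treatment, followed by 100% RH dew periods and a 20 °C greenhouse. Percent control was calculated from severity versus untreated plants.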
# Puccinia triticina = assay: Wheat brown rust (PUCCRT), disease control on wheat seedlings; details: low volume application at 121.5 g/H
# Outline: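 Compounds in acetone, diluted with nine volumes of water containing 110 ppm Triton X-100, sprayed to run-off on first-leaf Yuma wheat seedlings; track-spray tests used EC formulations with 0.1% Trycol 5941. Puccinia triticina spores applied before or after treatment. Overnight dark dew room at 22° C, 100% humidity, then greenhouse at 24° C.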
# Phakopsora pachyrhizi = assay: Asian soybean rust (PHAKPA), disease control on soybean seedlings; details: High volume application at 25 ppm
# Experimental: Technical grades of materials were dissolved in acetone, which were then mixed with nine volumes of water containing 0.011% Tween 20. The fungicide solutions were applied onto soybean seedlings using an automated booth sprayer to run-off. All sprayed plants were allowed to air dry prior to further handling.
# Soybean plants (variety Williams 82) were grown in soil-less Metro mix, with one plant per pot. Two week old seedlings were used for testing. Plants were inoculated either 3 days prior to or 1 day after fungicide treatments. Plants were incubated for 24 h in a dark dew room at 22° C. and 100% relative humidity then transferred to a growth room at 23° C. for disease to develop. Disease severity was assessed on the sprayed leaves.
# [1] = 24 h, 1 Day Protectant, read-out: SEPTTR disease control, 1DP, LV activity
# [2] = 72 h, 3 Day Curative, read-out: SEPTTR disease control, 3DC, LV activity
# [3] = 24 h, 1 Day Protectant, read-out: PUCCRT disease control, 1DP, LV activity
# [4] = 72 h, 3 Day Curative, read-out: PUCCRT disease control, 3DC, LV activity
# [5] = 24 h, 1 Day Protectant, read-out: PHAKPA 1DP disease control rating
# [6] = 72 h, 3 Day Curative, read-out: PHAKPA 3DC disease control rating
SMILES,pest or weed control at 121.5 g/ha (Zymoseptoria tritici; [1]),pest or weed control at 121.5 g/ha (Zymoseptoria tritici; [2]),pest or weed control at 121.5 g/ha (Puccinia triticina; [3]),pest or weed control at 121.5 g/ha (Puccinia triticina; [4]),pest or weed control at 25 ppm (Phakopsora pachyrhizi; [5]),pest or weed control at 25 ppm (Phakopsora pachyrhizi; [6])
COc1ccnc(C(=O)N[C@@H](C)C(=O)O[C@@H](C)[C@H](c2ccc(F)cc2C)C2CCCC2)c1OC(C)=O [Compound 184],> 80%,> 80%,> 80%,> 80%,> 80%,< 80%
COc1ccnc(C(=O)N[C@@H](C)C(=O)O[C@@H](C)[C@H](c2ccc(F)cc2C)C2CCCCC2)c1OC(C)=O [Compound 185],> 80%,> 80%,> 80%,< 80%,> 80%,< 80%
CCC(C)[C@@H](c1ccc(F)cc1C)[C@H](C)OC(=O)[C@H](C)NC(=O)c1nccc(OC)c1OC(C)=O (stereo partly drawn) [Compound 188],> 80%,> 80%,> 80%,< 80%,> 80%,> 80%
COc1ccnc(C(=O)N[C@@H](C)C(=O)O[C@@H](C)[C@H](c2ccc(F)cc2C)C2CCC2)c1OC(C)=O [Compound 189],> 80%,> 80%,> 80%,< 80%,> 80%,< 80%
COc1ccnc(C(=O)N[C@@H](C)C(=O)O[C@H](C)[C@H](c2ccc(F)cc2C)C2CCCC2)c1OC(C)=O [Compound 190],< 0%,< 80%,< 0%,< 0%,< 80%,< 80%
COc1ccnc(C(=O)N[C@@H](C)C(=O)O[C@H](C)[C@H](c2ccc(F)cc2C)C2CCCCC2)c1OC(C)=O [Compound 191],< 80%,< 80%,< 0%,< 80%,< 80%,< 0%
COc1ccnc(C(=O)N[C@@H](C)C(=O)O[C@H](C)[C@H](c2ccc(F)cc2C)C(C)C)c1OC(C)=O [Compound 192],< 0%,> 80%,> 80%,< 80%,> 80%,< 80%
COc1ccnc(C(=O)N[C@@H](C)C(=O)O[C@@H](C)[C@@H](c2ccc(F)cc2C)C2CCCC2)c1OCOC(C)=O [Compound 193],< 0%,< 80%,< 80%,< 80%,< 80%,< 80%
COc1ccnc(C(=O)N[C@@H](C)C(=O)O[C@@H](C)[C@@H](c2ccc(F)cc2C)C2CCCCC2)c1OCOC(C)=O [Compound 194],< 80%,> 80%,< 80%,< 0%,< 80%,< 80%
COc1ccnc(C(=O)N[C@@H](C)C(=O)O[C@@H](C)[C@H](c2ccc(F)cc2C)C2CCCC2)c1OCOC(C)=O [Compound 195],> 80%,> 80%,> 80%,> 80%,> 80%,< 80%
CCC(C)[C@@H](c1ccc(F)cc1C)[C@H](C)OC(=O)[C@H](C)NC(=O)c1nccc(OC)c1OCOC(C)=O (stereo partly drawn) [Compound 196],> 80%,> 80%,> 80%,> 80%,> 80%,< 80%

# — patent US20180186742A1, “PICOLINAMIDES AS FUNGICIDES” (Dow AgroSciences LLC, priority 2017, published 2018)
